Where two headings read alike, the source gives them in different places.
Experiments:
WiDr cells = assay: MTT cytotoxicity assay, 72 h; assay type: cell-based, human; conditions: p53 mt, read-out: IC50 (mean ± SE) after 72 h continuous exposure
Method: (§1) Cells in a subconfluent phase are transferred to 96-well microtitre plates. L1210 cells are plated at a density of 1000 cells/well in 100 μl medium, while all other cell lines are plated at a density of 2000-25000 cells/well. The cells are left for 24 h prior to treatment to ensure exponential growth has been achieved, 24 h after plating (day 0), 100 μl of phosphatase inhibitor is added to each well, control wells received 100 μl of medium only. Drug exposure time is 72 h (day 3). The effect of phosphatase inhibition is tested in triplicate over a concentration range of […]−1×10^−8 M. Growth inhibitory effects are evaluated using the MTT assay and absorbance read at […]. The IC50 is the drug concentration at which cell growth is 50% inhibited based on the difference of optical density on day 0 and day 3 of drug exposure. Cytotoxicity is evaluated using a spectrophotometric assay which determines the percentage of cell growth following exposure of the cells to various concentrations of the phosphatase inhibitors for a period of 72 hours. The subsequent dose response curve is used to calculate IC50 values (the drug concentration at which cell growth is 50% inhibited).
(§2) Anti-cancer screening of the protein phosphatase inhibitors is assessed using the MTT assay. This assay determines cell viability by the ability of mitochondrial dehydrogenase to produce formazan crystals from 3-(4,5-dimethylthiazol-2-yl)-2,5-diphenyltetrazolium bromide. The viable cell number/well is directly proportional to the production of formazan, which following solubilization, can be measured spectrophotometrically (540 nm). This technique is also used by the National Cancer Institute to screen for new anticancer agents.
(§3) As described herein a number of cantharidin analogues have been synthesised and tested for their anticancer activity in nine cancer cell lines using the MTT assay after 72 h exposure. These new analogues are shown in FIG. 2 and have been designated MK-1 through to MK-9.

143B cells = assay: MTT cytotoxicity assay, 72 h; assay type: cell-based, human; conditions: p53 mt, read-out: IC50 (mean ± SE) after 72 h continuous exposure
Method: as §1, §2, §3

HCT116 cells [1] = assay: MTT cytotoxicity assay, 72 h; assay type: cell-based, human; conditions: HCT116, p53 wt, read-out: IC50 (mean ± SE) after 72 h continuous exposure
Method: as §1, §2, §3

HT29 cells [2] = assay: MTT cytotoxicity assay, 72 h; assay type: cell-based, human; conditions: HT29, p53 mt, read-out: IC50 (mean ± SE) after 72 h continuous exposure
Method: as §1, §2, §3

SW480 cells = assay: MTT cytotoxicity assay, 72 h; assay type: cell-based, human; conditions: SW480, p53 mt, read-out: IC50 (mean ± SE) after 72 h continuous exposure
Method: as §1, §2, §3

ADDP cells = assay: MTT cytotoxicity assay, 72 h; assay type: cell-based, human; conditions: p53 mt, read-out: IC50 (mean ± SE) after 72 h continuous exposure
Method: as §1, §2, §3

HL60 cells = assay: MTT cytotoxicity assay, 72 h; assay type: cell-based, human; conditions: HL60, p53 nul, read-out: IC50 (mean ± SE) after 72 h continuous exposure
Method: as §1, §2, §3

L1210 cells = assay: Cell cycle analysis, flow cytometry of propidium iodide stained cells; assay type: cell-based, murine; conditions: for Cell Cycle Distribution, G1 / Cell Cycle Distribution, G2 + M / Cell Cycle Distribution, S / Cell Cycle Distribution, sub G1 / Cell cycle remark: 12 h; for Cell cycle response: L1210, 12 h exposure
Method: The cells are fixed in 70% ethanol and stored at −20° C. until analysis is performed (1-2 weeks). After fixing, the cells are pelleted and incubated in PBS containing propidium iodide ([…]) and RNase A (200 mg/ml) for at least 30 min at room temperature. The samples (2×10^4 events) are analysed using a Becton Dickson FACScan, fluorescence is collected in fluorescence detector 2 (FL2), filter 575/30 nm band pass. Cell cycle distribution is assessed using Cell Quest software (Becton Dickson).
The ability of the protein phosphatase inhibitors to abrogate the G1 or G2 checkpoint of the cell cycle may be determined by cell cycle analysis using flow cytometry. Briefly, asynchronous cell cultures are harvested 18 h after 6 Gy irradiation and/or 12 h incubation with the protein phosphatase inhibitor. Depending upon the p53 status of the cell line, radiation treatment alone will induce arrest in either G1 and/or G2 phase of the cell cycle.
Data shown in Table 2 and FIG. 4 show the cell cycle response of L1210, HL60, HT29 and HCT116 cells to cantharidin and the new cantharidin analogues MK-2 and MK-4 after 12 h exposure. In summary, cantharidin and MK-2 produced a similar response and induced G2 arrest in all four cell lines tested. […] HL60 and HCT116 cells. […] The magnitude of the cell cycle arrest induced by these drugs directly correlated with their cytotoxicity in the respective cell lines. […] The cytotoxicity of the […]

A2780 cells = assay: MTT cytotoxicity assay, 72 h; assay type: cell-based, human; conditions: A2780, p53 wt; read-out: IC50 (mean ± SE) after 72 h continuous exposure
Method: as §1, §2, §3

HCT116 cells [3] = assay: Combination studies, Median Effect Method (MTT); assay type: cell-based, human; conditions: simultaneous
Method: (§4) Those protein phosphatase inhibitors which show abrogation of either the G1 or G2 checkpoint will then be exploited in combination studies with either radiation exposure or chemotherapy drugs incubation. The MTT (3-[4,5-dimethylthiazol-2-yl]2,5-diphenyl-tetrazolium bromide) assay is used to determine whether a synergistic, antagonistic or additive effect is induced. The Median Effect method is adopted to mathematically determine the optimal combination index of the treatments chosen (Chou and Talalay, 1984). This method has been extensively used to investigate the cytotoxicity of various drug combinations including cisplatin and D1694 (Ackland et al 1996; 1998). A combination index value less than 1 indicates synergism, a value equal to 1 indicates additivity and a value greater than one indicates antagonism.
(§5) The cell lines listed above are exposed continuously to cisplatin and the phosphatase inhibitor in various drug ratio combinations for 72 h and then assayed for cytotoxicity; Similarly, the cells are exposed to 8 Gy of radiation and incubated with the phosphatase inhibitor and assessed for cytotoxicity at 72 h.
(§6) This method tests the cytotoxicity of various drug combinations from which a combination index can be calculated. A value of greater than one indicated antagonism, a value equal to 1 indicates additivity, while a value less than one indicates synergism. The HT29 and HCT116 cell lines were chosen as they have differing p53 status and they represent the tumour types that responded the greatest to cantharidin and its analogues.

HT29 cells [4] = assay: Combination studies, Median Effect Method (MTT); assay type: cell-based, human; conditions: simultaneous
Method: as §4, §5, §6

| Structure (SMILES) | Cell Cycle Distribution, G1 (L1210 cells; L1210, 50 μM) | Cell Cycle Distribution, G2 + M (L1210 cells; L1210, 50 μM) | Cell Cycle Distribution, S (L1210 cells; L1210, 50 μM) | Cell Cycle Distribution, sub G1 (L1210 cells; L1210, 50 μM) | Cell cycle response (L1210 cells) | IC50 (WiDr cells) [µM] | IC50 (143B cells) [µM] | IC50 (HCT116 cells [1]) [µM] | IC50 (HT29 cells [2]) [µM] | IC50 (SW480 cells) [µM] | IC50 (ADDP cells) [µM] | IC50 (A2780 cells) [µM] | IC50 (HL60 cells) [µM] | Cell Cycle Distribution, G1 (L1210 cells; L1210, 100 μM) | Cell Cycle Distribution, G2 + M (L1210 cells; L1210, 100 μM) | Cell Cycle Distribution, S (L1210 cells; L1210, 100 μM) | Cell Cycle Distribution, sub G1 (L1210 cells; L1210, 100 μM) | Cell Cycle Distribution, G1 (L1210 cells; L1210, 250 μM) | Cell Cycle Distribution, G2 + M (L1210 cells; L1210, 250 μM) | Cell Cycle Distribution, S (L1210 cells; L1210, 250 μM) | also measured |
| --- | --- | --- | --- | --- | --- | --- | --- | --- | --- | --- | --- | --- | --- | --- | --- | --- | --- | --- | --- | --- | --- |
| C[C@@]12C(=O)OC(=O)[C@]1(C)[C@H]1CC[C@@H]2O1 [Cantharidin, exo.exo-2.3-dimethyl-7-oxobicyclo[2.2.1]heptane-2,3-dicarboxylic acid anhydride] | 22.0 percentage of total | 50.6 percentage of total | 27.8 percentage of total | 1.9 percentage of total | G2 arrest | – | – | – | – | – | – | – | – | – | – | – | – | – | – | – | IC50 (WiDr cells; Homo sapiens, 72 h): 6.1 ± 0.5 µM; IC50 (143B cells; Homo sapiens, 72 h): 10.2 ± 1.2 µM; IC50 (HCT116 cells [1]; Homo sapiens, HCT-116, 72 h): 12 µM; IC50 (HT29 cells [2]; Homo sapiens, HT-29, 72 h): 6.4 ± 0.7 µM; IC50 (SW480 cells; Homo sapiens, 72 h): 17.5 µM; IC50 (ADDP cells; Homo sapiens, 72 h): 12 ± 0.8 µM; IC50 (HL60 cells; Homo sapiens, HL-60, 72 h): 13 µM; Cell Cycle Distribution, G1 (L1210 cells; L1210, 1 μM): 45.8 percentage of total; Cell Cycle Distribution, G2 + M (L1210 cells; L1210, 1 μM): 21.6 percentage of total; Cell Cycle Distribution, S (L1210 cells; L1210, 1 μM): 33.7 percentage of total; Cell Cycle Distribution, sub G1 (L1210 cells; L1210, 1 μM): 0.5 percentage of total; Cell Cycle Distribution, G1 (L1210 cells; L1210, 5 μM): 46.5 percentage of total; Cell Cycle Distribution, G2 + M (L1210 cells; L1210, 5 μM): 21.9 percentage of total; Cell Cycle Distribution, S (L1210 cells; L1210, 5 μM): 32.6 percentage of total; Cell Cycle Distribution, sub G1 (L1210 cells; L1210, 5 μM): 0.6 percentage of total; Cell Cycle Distribution, G1 (L1210 cells; L1210, 10 μM): 49.1 percentage of total; Cell Cycle Distribution, G2 + M (L1210 cells; L1210, 10 μM): 18.9 percentage of total; Cell Cycle Distribution, S (L1210 cells; L1210, 10 μM): 33.0 percentage of total; Cell Cycle Distribution, sub G1 (L1210 cells; L1210, 10 μM): 0.5 percentage of total; Cell cycle remark (L1210 cells; L1210, 50 μM): G2 arrest |
| O=C1OC(=O)C2C3C=CC(O3)C12 (stereo not drawn) [MK-2] | 42.7 percentage of total | 31.7 percentage of total | 26.2 percentage of total | 0.3 percentage of total | G2 arrest | 198 ± 53 | 248 ± 29 | 160 ± 10 | 183 ± 20 | 155 ± 9 | 183 ± 17 | 157 ± 9 | 177 ± 3 | 45.2 percentage of total | 32.4 percentage of total | 22.4 percentage of total | 0.6 percentage of total | 46.7 percentage of total | 36.7 percentage of total | 14.3 percentage of total | Cell Cycle Distribution, sub G1 (L1210 cells; L1210, 250 μM): 2.4 percentage of total; Cell Cycle Distribution, G1 (L1210 cells; L1210, 500 μM): 26.3 percentage of total; Cell Cycle Distribution, G2 + M (L1210 cells; L1210, 500 μM): 60.0 percentage of total; Cell Cycle Distribution, S (L1210 cells; L1210, 500 μM): 10.1 percentage of total; Cell Cycle Distribution, sub G1 (L1210 cells; L1210, 500 μM): 3.9 percentage of total; Cell cycle remark (L1210 cells; L1210, 500 μM): G2 arrest |
| O=C1OC(O)C2C3CCC(O3)C12 (stereo not drawn) [MK-4] | 42.0 percentage of total | 32.0 percentage of total | 26.9 percentage of total | 0.5 percentage of total | G2 arrest | 15 ± 3 | 450 | 78 ± 7 | 14 | 88 ± 5 | 275 ± 56 | 333 ± 55 | 393 ± 103 | 43.2 percentage of total | 32.5 percentage of total | 25.4 percentage of total | 0.4 percentage of total | 45.7 percentage of total | 30.5 percentage of total | 24.6 percentage of total | Combination response with taxotere (HCT116 cells [3]): synergistic; Combination response with cisplatin (HCT116 cells [3]; molar ratios 1:1, 10:1, 1:10): additive; Combination response with cisplatin (HT29 cells [4]; molar ratios 1:1, 10:1, 1:10): additive; Combination response with taxotere (HT29 cells [4]; ratios 1:10, 1:100, 1:1000 (Taxotere: MK-4)): additive; Cell Cycle Distribution, sub G1 (L1210 cells; L1210, 250 μM): 0.5 percentage of total; Cell Cycle Distribution, G1 (L1210 cells; L1210, 500 μM): 47.5 percentage of total; Cell Cycle Distribution, G2 + M (L1210 cells; L1210, 500 μM): 33.9 percentage of total; Cell Cycle Distribution, S (L1210 cells; L1210, 500 μM): 18.6 percentage of total; Cell Cycle Distribution, sub G1 (L1210 cells; L1210, 500 μM): 1.1 percentage of total; Cell cycle remark (L1210 cells; L1210, 500 μM): Slight Δ |

Reference: patent publication US20060030616A1, “Anhydride modified cantharidin analogues useful in the treatment of cancer” (priority 1998, published 2006)
